{
  "source": "patent US20190178889A1",
  "about": "“HIGH-THROUGHPUT SCREENING ASSAY” (BellBrook Labs, priority 2016, published 2019)",
  "key": {"[1]": {"system": "mouse antiserum (cGAMP antibody)", "assay": "FP binding of mouse antiserum to fluorescein-cGAMP tracer with competitor nucleotides", "conditions": "competitor 10 μM, tracer 4 nM"}, "[2]": {"system": "cGAMP mAb6", "assay": "competitive FP immunoassay, cGAMP mAb6 with cGAMP-Atto 633 tracer", "assay_type": "binding, mouse", "conditions": "for binding to mAb6: ATP and GTP at more than 10^4-fold excess over half-maximal cGAMP concentration", "excerpt": "Importantly, neither of these other cyclic dinucleotides are known to be endogenous in mammalian cells."}, "[3]": {"target": "T1, full length human cGAS (Homo sapiens, UniProt Q8N884)", "T1 sequence (Q8N884 whole entry)": "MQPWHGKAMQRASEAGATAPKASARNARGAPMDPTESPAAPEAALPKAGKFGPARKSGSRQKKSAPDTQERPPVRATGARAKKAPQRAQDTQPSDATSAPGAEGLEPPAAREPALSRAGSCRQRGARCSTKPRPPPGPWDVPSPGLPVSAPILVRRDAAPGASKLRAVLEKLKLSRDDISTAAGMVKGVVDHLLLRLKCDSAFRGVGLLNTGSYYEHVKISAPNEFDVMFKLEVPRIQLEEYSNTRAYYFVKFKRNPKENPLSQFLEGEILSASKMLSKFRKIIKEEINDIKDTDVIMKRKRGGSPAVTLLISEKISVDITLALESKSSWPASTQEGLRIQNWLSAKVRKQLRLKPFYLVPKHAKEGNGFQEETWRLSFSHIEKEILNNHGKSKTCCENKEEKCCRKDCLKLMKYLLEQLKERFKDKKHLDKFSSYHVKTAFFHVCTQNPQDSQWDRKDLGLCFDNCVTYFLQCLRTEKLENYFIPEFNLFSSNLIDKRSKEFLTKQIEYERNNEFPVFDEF", "assay": "cGAS enzyme assay with cGAMP FP detection", "assay_type": "biochemical", "parameters": "Assays using highly purified, full length human cGAS were performed; 6xHis; made in house; host or cells: E. coli BL21 DE3 (Rosetta DE3, Novagen), T7 expression vector", "procedure": "FIG. 9 includes A) a plot showing detection of purified, full-length cGAS: cGAS enzyme titrations show a dose-dependent assay signal, as discussed in more detail in Example 2, below; N- and C-terminal His-tagged cGAS was prepared according to Example 4 (100 μM ATP and GTP, 62.5 nM 45 bp ISD DNA, 60 min reactions); […]; C) Confirmation that recombinant hcGAS was activated by ds DNA; half maximal responses of 3.5 and 5.9 nM for HSV 60 and ISD 45, respectively; D) ATP and GTP dependence: ATP and GTP were titrated separately and simultaneously; half maximal cGAS activity at 80 μM of both nucleotide; E) Dose response for cGAS inhibition by two flavonoids; F) a plot showing the results of an interference screen: the library of 1280 pharmacologically active compounds, available from Sigma (the “LOPAC library”) was used to test for compound interference with detection reagents as discussed in more detail in Example 2, below; wells contained all cGAS enzyme reaction components except the cGAS enzyme; positive controls contained 1 μM cGAMP, negative controls contained no cGAMP; […]; negative controls lacked dsDNA required for cGAS activation; H) an image of a coomassie blue stained SDS gel (top) and western blot (bottom) of purified 6×HIS-cGAS (Lane 1) and cGAS-6×His (Lane 2) prepared according to Example 4; Z=0.62, Z′=0.7.\ncGAS is one of four oligoadenylate synthases, nucleic acid sensors that activate innate immunity via production of short, 2′-5′ oligoadenylate secondary messengers (35); […]. Binding of dsDNA and DNA:RNA hybrids to cGAS induces a conformational transition in an activation loop, not unlike the displacement of inhibitory domains by autophosphorylation in protein kinases (Zhang, et al., 2014, Cell Rep 6(3):421-30; Fabbro, et al., 2012, Methods Mol Biol 795:1-34). The full-length enzyme was used to insure that all of the potential allosteric sites were present and that the enzyme was able to sample its full conformational repertoire. Prior to running cGAS enzyme reactions, the effect of cGAS reaction components, including ATP and GTP Brij 35, NaCl, Brij 35, and dsDNA on the detection reagents was examined; no significant effects were observed. Assays using highly purified, full length human cGAS were performed. The full-length human cGAS was prepared according to Example 4, below. Additionally, third-party-provided cGAS (Sun, et al., 2013, Science 339(6121):786-91) was used for comparative purposes. Some enzyme assays were run in kinetic mode; i.e., the detection reagents were present during the enzyme reactions, and the plates were read periodically, and others were run in endpoint mode, using EDTA to quench the reaction.\n. The enzyme data was graphed as the net change in polarization; […]. Conversion of polarization to cGAMP formation using a standard curve confirmed that product formation was linear with cGAS concentration (FIG. 9B); […]. There was essentially no quantitative activity data available for cGAS prior to the instant disclosure and the kcat values of approximately 1 min^−1 determined herein (at non-saturating ATP and GTP) were the first reported cGAS kinetic parameters. The generation of a good signal (i.e., ≥100 mP) with less than 10 nM cGAS is important for two reasons. It reduces the time and cost to prepare for a large screen by minimizing enzyme usage; for example, screening 1M (one million) compounds at 10 nM cGAS will require only 12 mg of enzyme. […]"}, "[4]": {"target": "scFvs against haptens", "conditions": "affinity-matured scFvs, yeast display; read-out: Kds of scFvs; cited from earlier work"}, "[5]": {"target": "T1, full length human cGAS", "assay": "cGAS enzyme assay with cGAMP TR-FRET detection"}, "[6]": {"conditions": "both nucleotides combined (titrated simultaneously), read-out: half maximal concentration of ATP and GTP for cGAS activity"}},
  "data": [
    {"compound": "Nc1nc2c(ncn2[C@@H]2O[C@@H]3COP(=O)(O)O[C@H]4[C@@H](O)[C@H](n5cnc6c(N)ncnc65)O[C@@H]4COP(=O)(O)O[C@@H]2[C@@H]3O)c(=O)[nH]1", "note": "[2′,3′ cGAMP, G(2′-5′)pA(3′-5′)p]", "values": [
      {"measurement": "effect of excess competitor on antiserum/tracer binding curve", "setting": "[1]", "result": "right-shifted by approximately two orders of magnitude"},
      {"measurement": "polarization shift", "setting": "[2]; at 500 nM cGAMP, 0.5-0.6 μg/ml mAb6", "result": "approximately 130 mP"}
    ]},
    {"compound": "Nc1nc2c(ncn2C2OC3COP(=O)(O)OC4C(O)C(COP(=O)(O)OC3C2O)OC4n2cnc3c(=O)[nH]c(N)nc32)c(=O)[nH]1", "note": "(stereo not drawn) [2′,3′ cyclic di-GMP]", "values": [
      {"measurement": "IC50", "setting": "[2]; FP competition curves, FIG. 8E, read-out: 1050 values (competition, displacement of tracer from mAb6)", "result": 250, "unit": "nM"}
    ]},
    {"compound": "Nc1nc2c(ncn2[C@@H]2O[C@@H]3COP(=O)(O)O[C@H]4[C@@H](O)[C@H](n5cnc6c(N)ncnc65)O[C@@H]4COP(=O)(O)O[C@H]3[C@H]2O)c(=O)[nH]1", "note": "[3′,3′ cGAMP]", "values": [
      {"measurement": "binding to mAb6", "setting": "[2]; FP competition curves, FIG. 8E", "result": "did not bind"}
    ]},
    {"compound": "Nc1ncnc2c1ncn2[C@@H]1O[C@H](COP(=O)(O)OP(=O)(O)O)[C@@H](O)[C@H]1O", "note": "[ADP]", "values": [
      {"measurement": "binding to mAb6", "setting": "[2]; FP competition curves, FIG. 8E", "result": "lack of binding"}
    ]},
    {"compound": "Nc1ncnc2c1ncn2[C@@H]1O[C@H](COP(=O)(O)OP(=O)(O)OP(=O)(O)O)[C@@H](O)[C@H]1O", "note": "[ATP]", "values": [
      {"measurement": "effect of excess competitor on antiserum/tracer binding curve", "setting": "[1]", "result": "no effect"},
      {"measurement": "EC50", "setting": "[3]; [6]", "result": 80000, "unit": "nM"},
      {"measurement": "binding to mAb6", "setting": "[2]; FP competition curves, FIG. 8E", "result": "no detectable binding"}
    ]},
    {"compound": "O=C(O)CN1CCN(CC(=O)O)CCN(CC(=O)O)CCN(CC(=O)O)CC1", "note": "[DOTA]", "values": [
      {"measurement": "Kd", "setting": "[4]", "result": 0.0082, "unit": "nM"}
    ]},
    {"compound": "Nc1nc2c(ncn2[C@@H]2O[C@H](COP(=O)(O)OP(=O)(O)OP(=O)(O)O)[C@@H](O)[C@H]2O)c(=O)[nH]1", "note": "[GTP]", "values": [
      {"measurement": "effect of excess competitor on antiserum/tracer binding curve", "setting": "[1]", "result": "no effect"},
      {"measurement": "EC50", "setting": "[3]; [6]", "result": 80000, "unit": "nM"},
      {"measurement": "binding to mAb6", "setting": "[2]; FP competition curves, FIG. 8E", "result": "no detectable binding"}
    ]},
    {"compound": "Nc1nc2c(ncn2[C@@H]2O[C@@H]3COP(=O)(O)O[C@H]3[C@H]2O)c(=O)[nH]1", "note": "[cGMP]", "values": [
      {"measurement": "binding to mAb6", "setting": "[2]; FP competition curves, FIG. 8E", "result": "lack of binding"}
    ]},
    {"compound": "cGAS-His: full-length human cGAS having a 6×His at the C-terminus", "values": [
      {"measurement": "Kcat", "setting": "[3]; determined by FP", "result": 1.21},
      {"measurement": "Kcat", "setting": "[5]; determined by TR-FRET", "result": 1.58}
    ]},
    {"compound": "cGAS: highly purified, full length human cyclic GMP-AMP synthase", "values": [
      {"measurement": "EC50", "setting": "[3]; FP assay, depending on the preparation, 100 μM ATP and GTP, 62.5 nM 45 bp ISD DNA, 60 min, read-out: half-maximal change (EC50) of polarization, cGAS enzyme titration", "result": "6 to 12", "unit": "nM"},
      {"measurement": "Kcat", "setting": "[3]; cGAMP FP assay, non-saturating ATP and GTP", "result": "approximately 1 min^−1"},
      {"measurement": "EC50", "setting": "[5]; read-out: EC50, cGAS enzyme titration, TR-FRET assay, FIG. 10E", "result": "~5", "unit": "nM"}
    ]}
  ]
}
